Measurements from article PMC4269221 (Cell reports, 2014).
Entries after “also recorded” stand apart in the source; their conditions may differ.

Legend:
[1] = biological target: p53-Mdm2 complexes in Saos-2 p53-Mdm2 ReBiL cells (Homo sapiens, UniProt Q00987); assay: Real-time BiLC; type: cell-based; conditions: pre-induced cells, doxycycline withdrawal, 10% FBS media, 37 °C
[2] = tested on: p53-Mdm4 complexes in Saos-2 p53-Mdm4 ReBiL cells; assay: Real-time BiLC; type: cell-based; conditions: 37 °C; for disruption of preformed p53-Mdm4 complexes in living cells: pre-induced cells, doxycycline withdrawal, 10% FBS media
[3] = tested on: Mdm2-Mdm4 N-terminal BiLC pair (U2OS Mdm4_111 - Mdm2_108 ReBiL cells); assay: ReBiL assay of the Mdm2-Mdm4 N-terminal BiLC pair in living cells; type: cell-based; conditions: 500 ng/ml doxycycline, 24 hours, 37 °C
[4] = tested on: p53-Mdm2 complexes in cell lysates; assay: BiLC assay using cell lysates, p53-Mdm2; type: biochemical; conditions: absence of FBS, RT 10 minutes, luminescence at 26 °C
[5] = tested on: p53-Mdm4 complexes in cell lysates; assay: BiLC assay using cell lysates, p53-Mdm4; type: biochemical; conditions: absence of FBS, RT 10 minutes, luminescence at 26 °C
Saos-2 cells = assay: Lactate dehydrogenase; type: cell-based; conditions: absence of serum, 25 μM and 10 μM, 6 hr
Saos-2 cells (p53-null) = assay: CellTiter Glo cell viability assay, Saos-2; conditions: Saos-2 ReBiL cells, 6 hr, CellTiter Glo (Figure 5)

p53-Mdm2 complexes in Saos-2 p53-Mdm2 ReBiL cells, sequence (Q00987 whole entry, one chain of several): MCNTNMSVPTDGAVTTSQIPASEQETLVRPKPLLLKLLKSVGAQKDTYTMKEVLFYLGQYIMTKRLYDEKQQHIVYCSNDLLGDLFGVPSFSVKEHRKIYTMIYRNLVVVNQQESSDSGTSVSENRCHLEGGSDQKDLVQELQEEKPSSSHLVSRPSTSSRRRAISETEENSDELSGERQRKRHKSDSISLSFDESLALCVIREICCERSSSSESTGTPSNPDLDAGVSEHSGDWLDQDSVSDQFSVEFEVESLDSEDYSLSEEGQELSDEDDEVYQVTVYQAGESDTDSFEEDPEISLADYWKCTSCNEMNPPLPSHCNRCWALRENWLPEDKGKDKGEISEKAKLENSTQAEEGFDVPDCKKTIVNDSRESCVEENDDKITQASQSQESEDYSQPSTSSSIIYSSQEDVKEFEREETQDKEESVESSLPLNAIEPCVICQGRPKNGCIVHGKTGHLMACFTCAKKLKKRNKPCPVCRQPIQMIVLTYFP

Molecule | disruption of preformed p53-Mdm2 complexes in living cells [1] | disruption of preformed p53-Mdm4 complexes in living cells [2] | Mdm2-Mdm4 N-terminal domain BiLC signal (association) [3] | p53-Mdm2 disruption in lysate BiLC assay [4] | p53-Mdm4 disruption in lysate BiLC assay [5] | p53-Mdm4 BiLC signal (newly synthesized complexes) ([2]; doxycycline 500 ng/ml and compound added at Time = 0, 24-48 hr) | LDH leakage / cell membrane damage (Saos-2 cells) | p53-independent cytotoxicity at high concentrations (Saos-2 cells (p53-null))
RO-5963 | limited ability to disrupt; also recorded: moderately reduces | no effect | increased the BiLC signal; also recorded: enhances | no activity | no activity |  |  | 
CCOc1cc(/C=C2/C(=O)N(c3ccccc3)N=C2C)cc(Cl)c1OCC(=O)OC [SJ-172550] |  |  |  | no activity | no activity | No decrease; also recorded: lacks p53-Mdm4 disruption activity |  | 
COc1ccc(C2=N[C@@H](c3ccc(Cl)cc3)[C@@H](c3ccc(Cl)cc3)N2C(=O)N2CCNC(=O)C2)c(OC(C)C)c1 [Nutlin-3a] |  | not affected; also recorded: has no effect | did not promote | efficiently disrupted |  |  | did not induce membrane leakage | induce p53-independent cytotoxicity
